Reference: patent publication US20250009731A1, “TOLL-LIKE RECEPTOR THERAPY COMBINATIONS WITH CBL-B INHIBITOR COMPOUNDS” (NURIX THERAPEUTICS, INC., priority 2021, published 2025)

Columns and labels:
[1] = system: 4T1 tumors; assay: 4T1 triple negative mammary carcinoma metastatic model with primary tumor resection, survival; format: in vivo, mice; conditions: oral 30 mg/kg daily
From the text: Another in vivo study evaluated the ability of Compound 23 treatment, started before the primary tumor resection, to eradicate 4T1 breast carcinoma metastatic disease. The 4T1 triple negative mammary carcinoma is a transplantable tumor cell line that is highly tumorigenic and invasive and, unlike most tumor models, spontaneously metastasizes from a primary tumor growing in the mammary gland to multiple distant sites including lymph nodes, blood, liver, lung, brain, and bone. Tumor cells are easily transplanted into the mammary glands so that the primary tumor grows in the anatomically relevant site. The progressive spread of 4T1 metastases to other organs is very similar to that of human mammary cancer. Animals die from disseminated metastatic disease regardless of resection of the primary tumor (Pulaski et al., 2000, Current Protocols in Immunology 39(1):20.2.1-20.2.16). […] Beginning on Day 7, tumor volumes were measured twice weekly until they reached a mean tumor volume of 145 mm^3 when the primary tumors were resected on Day 14 or 15 (dotted line). Median survival times were calculated for each group and body weights were monitored until the end of the study on Day 140. Body weights were measured twice weekly then once weekly starting Day 47. […] Statistical significance of differences in conditional survival between groups was evaluated using the Log-rank (Mantel-Cox) test. […] Median survival is reported as undefined for the Compound 23 group, as survival exceeds 50% at Day 140.

[2] = system: total primary human T-cells; assay: IL-2 and IFN-γ release by stimulated total primary human T-cells (ELISA); format: cell-based; conditions: plate bound anti-CD3, with and without CD28 co-stimulation, lesser degree without co-stimulation
Method: Cells were stimulated with plate bound anti-CD3 (right) or anti-CD3/anti-CD28 (left) in presence or absence of the indicated concentration of Compound 23. Release of IL-2 or IFN-γ were assessed by ELISA. Compound 23 inhibition of Cbl-b enhanced IL-2 and IFN-γ secretion in primary human T cells stimulated with anti-CD3 antibodies, in both the presence and absence of CD28 co-stimulation, although to a lesser degree in the absence of co-stimulation.

[3] = system: CT26 tumors; assay: Flow cytometry of tumor-infiltrating immune cells in CT26 tumors; format: in vivo, mice; conditions: 30 mg/kg daily PO, 19 doses
Method: CT26 tumors were harvested after 19 doses of Compound 23 or vehicle and tumor-infiltrating immune cell density and phenotype was assessed by Flow Cytometry.

[4] = system: CT26 tumors; assay: CT26 colon carcinoma tumor model, tumor volume; format: in vivo, mice; conditions: oral 10 mg/kg or 30 mg/kg, Day 7 to Day 32; tumor volume at Day 25
Method: Mice bearing tumors on their left and right flanks were treated from Day 7 to Day 32 with oral Compound 23 at 10 mg/kg or 30 mg/kg or vehicle. Volumes at Day 25 are indicated. Statistics were calculated with one-way ANOVA and Dunn's multiple comparisons test ** P<0.01.

[5] = system: CT26 tumors; assay: CT26 tumor model with depleting antibodies for CD4+, CD8+ or NK cells; format: in vivo, mice; conditions: 30 mg/kg PO QD Day 9 to Day 25; tumor volume at Day 25
From the text: Tumor volume at Day 25 is indicated. CD8+ T-cell or NK cell depletion abrogates Compound 23 activity. Stats calculated with Mann-Whitney (Vehicle vs. Compound 23) or one-way ANOVA with Dunn's multiple comparisons test (Compound 23 vs. Depletion groups); * P≤0.05, ** P≤0.01, **** P≤0.0001 The efficacy of Compound 23 on tumors is linked to CD8+ T function and on NK cell function.

[6] = system: 4T1 tumors; assay: Flow cytometry of tumor and blood from orthotopic 4T1 tumor-bearing mice; format: in vivo
From the text: Tumor and blood samples were harvested on Day 28 and analyzed by Flow Cytometry.

[7] = system: CT26 tumors; assay: nCounter Mouse PanCancer Immune Profiling Panel gene expression in CT26 tumors; format: in vivo, mice; conditions: vs vehicle
From the text: In this example, the gene expression changes induced in tumors from mice treated with Compound 23 studies were as investigated. To perform this assessment, the nCounter PanCancer Immune Profiling Panel was used, which is a multiplexed gene expression panel developed by NanoString Technologies that measures expression of 770 immune and cancer related genes (Eastel et al., 2019, Expert Review of Molecular Diagnostics, 19(7):591-598). This technology is a unique gene expression tool that covers many important features of the immune response in the tumor microenvironment and was used to facilitate the understanding of immune related changes in tumors treated with Compound 23.
In FIG. 4A, CT26 tumors were harvested after 4 doses and after 19 doses of Compound 23 or vehicle and gene expression was directly measured using the nCounter Mouse PanCancer Immune Profiling Panel. Analysis was performed using the nSolver 4.0 and the nCounter Advanced Analysis software comparing gene expression in Compound 23 to vehicle treated tumors. […] Statistical significance of differences in mean cell type scores between Compound 23 and vehicle treated groups was evaluated using Mann-Whitney test (* P≤0.05, ** P≤0.01, and *** P≤0.001).
(§1) In FIG. 4B, CT26 tumors were harvested after 4 treatment doses and gene expression was directly measured using the nCounter Mouse PanCancer Immune Profiling Panel. Analysis was performed using the nSolver 4.0 and the nCounter Advanced Analysis software comparing gene expression in Compound 23 to vehicle treated tumors. As indicated in the titles above each panel, scatter plots of individual Pathway Signature Scores of vehicle and Compound 23 treated tumors are shown. Statistical significance of differences in Pathway Signature Scores between Compound 23 and vehicle treated groups was evaluated using Mann-Whitney test (* P≤0.05, ** P≤0.01, and *** P≤0.001).
as §1, with “FIG. 4C,” for “FIG. 4B,”, “after 19” for “after 4”

SMILES: C[C@H]1CCCN(Cc2cc3c(c(C(F)(F)F)c2)CN(c2cccc([C@]4(c5nncn5C)C[C@@H](C)C4)c2)C3=O)C1 [Compound 23]
- survival at Day 140 [1]: exceeds 50%
- anti-tumor activity, metastatic triple negative breast tumor model 4T1 ([1]; Day 8 to Day 46): significant anti-tumor activity
- median survival time compared to vehicle control ([1]; Day 8 to Day 46, primary tumor resected Day 14 or 15, Log-rank test): significantly increased
- mice that remained tumor free until the end of the study ([1]; Day 140): 54%
- median survival ([1]; study end Day 140): undefined
- IFN-γ secretion [2]: enhanced
- IL-2 secretion [2]: enhanced
- number of tumor-infiltrating leukocytes (TIL) per gram of tumor ([3]; FIG. 7A): increased
- frequency of total CD3+ T cells as a percentage of CD45+ leukocytes ([3]; FIG. 7B): increased
- frequency of total CD8+ T cells as a percentage of CD45+ leukocytes ([3]; FIG. 7C): increased
- number of total CD8+ T-cells per gram of tumor ([3]; FIG. 7D): increased
- frequency of CD8+ T-cells that express the activation marker CD29 (CD29+) ([3]; FIG. 7E): increased
- CD8+ T-cells to Tregs ratio ([3]; FIG. 7F): increased
- CD8+ effector T-cells (PD1+) to Tregs ratio ([3]; FIG. 7G): increased
- frequency of activated NK cells (CD11b+) that express Granzyme+ ([3]; FIG. 7H): increased
- frequency of activated NK cells (CD27+CD11 b+) that express Granzyme+ ([3]; FIG. 7I): increased
- anti-tumor activity, CT26 colon carcinoma model [4]: significant anti-tumor activity
- effect of CD8+ T-cell depletion on antitumor activity [5]: abrogates
- effect of NK cell depletion (anti-asialo-GM1) on antitumor activity [5]: abrogates
- frequency of tumor gp70 antigen-specific CD8+ T-cells (AH1 Dextramer+ CD8+ T-cells) in 4T1 tumors ([6]; 30 mg/kg daily PO Day 9 to Day 28, FIG. 6A): increased
- frequency of gp70 antigen-specific CD8+ T-cells with exhaustion phenotype (PD-1+ LAG3+) in 4T1 tumors ([6]; 30 mg/kg daily PO Day 9 to Day 28, FIG. 6B): decreased
- frequency of circulating CD8+ T-cells with activated phenotype (PD-1+) in blood ([6]; 30 mg/kg daily PO Day 9 to Day 28, FIG. 6C): increased
- frequency of circulating CD8+ T-cells with memory phenotype (CD44+CD27+CD127+) in blood ([6]; 30 mg/kg daily PO Day 9 to Day 28, FIG. 6D): increased
- cytotoxic cells score ([7]; after 4 doses, oral 30 mg/kg daily, P=0.1061): clear trend of increased infiltration
- tumor infiltrating lymphocytes (TIL) score ([7]; after 4 doses, oral 30 mg/kg daily, P=0.6679): clear trend of increased infiltration
- T-cell score ([7]; after 4 doses, oral 30 mg/kg daily, P=0.7551): clear trend of increased infiltration
- pathway scores of innate immune signaling: dendritic cell function, macrophage function, chemokine receptors and pathways ([7]; after 4 doses): significant gene expression changes
- pathway scores of T-cell, B cell, NK cell and adaptive immune function ([7]; after 4 doses, trend for increases): not significant
- cytotoxic cell score ([7]; after 19 doses, oral, P=0.0002): significant increases
- tumor infiltrating lymphocytes (TIL) score ([7]; after 19 doses, oral, P=0.0044): significant increases
- T-cell score ([7]; after 19 doses, oral, P=0.0098): significant increases
- immune related pathway scores: dendritic cell, macrophage, T-cell, NK cell, B cell, interferon function, adaptive immunity, chemokine and receptor, cytokine and receptor ([7]; after 19 doses): significantly enhanced function
